According to article PMC6271011, “Synthesis, Leishmanicidal and Cytotoxic Activity of Triclosan-Chalcone, Triclosan-Chromone and Triclosan-Coumarin Hybrids” (Molecules, 2014):
“And” between values parts separate entries of the source, which are not always exact repeats. Equal entries are not always repeated. Where two headings read alike, the source gives them in different places.

Columns and labels:
[1] = test system: human promonocytic cell line U937; test: in vitro; conditions: U-937 cells, MTT, 72 h, Lethal Concentration 50
Method: (§1) The cytotoxic activity of the compounds was assessed based on the viability of the human promonocytic cell line U937 (ATCC CRL-1593.2^TM) evaluated by the MTT (3-(4,5-dimethylthiazol-2-yl)-2,5-diphenyltetrazolium bromide) assay. In brief, cells were grown in 96-well cell-culture dishes at a concentration of 100,000 cells/mL in RPMI-1640 supplemented with 10% FBS and the corresponding concentrations of the compounds, starting at 200 µg/mL in duplicate. The cells were incubated at 37 °C with 5% CO2 for 72 h in the presence of the compounds, and then the effect was determined using the MTT assay, incubating at 37 °C for 3 h. The effect of the compounds was determined by measuring the activity of the mitochondrial dehydrogenase by adding 10 µL/well of MTT solution (0.5 mg/mL) and incubating at 37 °C for 3 h. The reaction was stopped by adding a 50% isopropanol solution with 10% sodium dodecyl sulfate for 30 min. Cell viability was determined based on the quantity of formazan produced, according to the optical density (O.D) obtained at 570 nm in a Bio-Rad (Hercules, CA, USA) ELISA instrument. Cultured cells in the absence of extracts were used as viability controls, while meglumine antimoniate and amphotericin B were used as cytotoxicity controls. Assays were performed twice with three replicates per each concentration tested.
(§2) Cytotoxicity was determined according to viability and mortality percentages obtained for each isolated experiment (compounds, amphotericin B, meglumine antimoniate and culture medium alone). The results were expressed as 50 lethal concentrations (LC50), that corresponds to the concentration necessary to eliminate 50% of cells, calculated by Probit analysis. Percentage of viability was calculated by Equation (1), where the optical density (O.D) of control, corresponds to 100% of viability. In turn, mortality percentage corresponds to 100% viability: % Viability = (O.D Exposed cells)/(O.D Control cells) × 100 (1)
(§3) The degree of toxicity was established according to the LC50 value using the following scale: highly toxic: LC50 < 50 μg/mL, toxic: LC50 > 50 to < 100 μg/mL; moderately toxic: LC50 > 100 to < 200 μg/mL and potentially non-toxic: LC50 > 200 μg/mL.

[2] = test system: intracellular amastigotes of L. (V) panamensis; test: Leishmanicidal activity against intracellular amastigotes (GFP, flow cytometry, 72 h); type: cell-based, Leishmania (Viannia) panamensis; conditions: for Leishmanicidal activity % Inhibition: intracellular amastigotes; for SI (Selectivity Index = LC50/EC50): LC50 U-937 / EC50 intracellular amastigotes
Method: The leishmanicidal activity of compounds was evaluated on intracellular amastigotes of L. panamensis transfected with the green fluorescent protein gene (MHOM/CO/87/UA140pIR-GFP). Effect of each compound was determined according to the inhibition of the infection evidenced by both decrease of the infected cells and decrease of intracellular parasite load. Briefly, U-937 human cells at a concentration of 3 × 10^5 cells/mL in RPMI 1640 and 0.1 μg/mL of PMA (phorbol-12-myristate-13-acetate) were infected with promastigotes in stationary phase growth in a 15:1 parasites per cell ratio and incubated at 34 °C and 5% CO2 for 3 h. Cells were washed two times with phosphate buffer solution (PBS) to eliminate not internalized parasites. Fresh RPMI 1640 1 mL was added and cells were incubated during 24 h to guarantee multiplication of intracellular parasites.
After 24 h of infection, the culture medium was replaced by fresh culture medium containing each compound at concentrations of 20 μg/mL. After 72 h, the inhibition of the infection progress was determined. Cells were removed from the bottom plate with a trypsin/EDTA (250 mg) solution. Recovered cells were centrifuged at 1100 rpm during 10 min at 4 °C, the supernatant was discarded and cells were washed with 1 mL of cold PBS and centrifuged at 1100 rpm during 10 min at 4 °C. Supernatant was discarded and cells were suspended in 500 μL of PBS and analyzed by flow cytometry (FC 500MPL, Cytomics, Brea, CA, USA) counting 20.000 events. All determinations for each compound and standards were carried out in triplicate, in two isolated experiments. Activity of tested compounds was carried out in parallel with infection progress in culture medium alone and in culture medium with amphotericin B 0.05 μg/mL and meglumine antimoniate (10.0 μg/mL) as control drugs. […] The infected cells were exposed against each concentration of synthesized compounds during 72 h, then, cells were removed and tested by flow cytometry as described before.
Antileishmanial activity was determined according to percentage of infected cells and parasite load obtained for each experimental condition by the cytometer. Percentage of infected cells was determined as the number of positive events by double fluorescence (green for parasites and red for cells) using dotplot analysis. On the other hand, the parasitic load was determined by analysis of mean fluorescence intensity (MFI).
The parasitemia inhibition was calculated by Equation (2), where the MFI of control, corresponds to 100% of parasitemia. In turn, inhibition percentage corresponds to 100% Parasitemia.
The selectivity index (SI), was calculated by dividing the cytotoxic activity and the leishmanicidal activity using the following formula: SI = CL50/CE50.

[3] = test system: intracellular amastigotes of L. (V) panamensis; test: as above; type: cell-based, Leishmania (Viannia) panamensis; conditions: for inhibition at 20 µg/mL: read-out: Leishmanicidal activity % Inhibition; for EC50: intracellular amastigotes in U-937 cells
[4] = in vitro; conditions: human
Method: as §1, §2, §3

[5] = test system: L. major; design: method as in PMID 15558191; conditions: against L. major; read-out: 50% inhibitory concentration (IC50), growth inhibition; cited from earlier work
[6] = test system: axenic and intracellular amastigotes of Leishmania panamensis; design: method as in doi:10.1007/s00044-011-9886-8; conditions: cited from earlier work
[7] = at 20 µg/mL, intracellular amastigotes

Molecule | inhibition at 20 µg/mL [3, 7] [%] | CC50 at 72 h [4] | EC50 [3] | SI (Selectivity Index = LC50/EC50) [2] | further results
3,4-dimethoxy-4'-hydroxychalcone [3,4-Dimethoxy-4'-hydroxychalcone (6), reference compound] | – | – | – | – | Cytotoxicity LC50 [1]: 13.9 ± 1.4 µg/mL; CC50 ([1]; read-out: Cytotoxicity LC50): 48.9 µM; Leishmanicidal activity % Inhibition ([2]; at 20 µg/mL, 72 h): 52.4 ± 6.5%; Leishmanicidal activity EC50 ([2]; intracellular amastigotes in U-937 cells, 72 h): 20.03 ± 1.4 µg/mL; EC50 ([2]; intracellular amastigotes in U-937 cells, 72 h, read-out: Leishmanicidal activity EC50 (converted)): 70.5 µM
Cc1cc(=O)oc2cc(O)ccc12 [7-Hydroxy-4-methylcoumarin (11), 7-hydroxy-4-methylcoumarin, reference compound] | 15.3 ± 0.1 | – | – | – | –
O=c1ccoc2cc(O)ccc12 [7-Hydroxychromone (20), 7-hydroxychromone, reference compound] | 14.8 ± 0.9 | – | – | – | –
C[C@@H]1[C@H](O)[C@@H](C)/C=C/C=C/C=C/C=C/C=C/C=C/C=C/[C@H](O[C@@H]2O[C@H](C)[C@@H](O)[C@H](N)[C@@H]2O)C[C@@H]2O[C@](O)(C[C@@H](O)C[C@@H](O)[C@H](O)CC[C@@H](O)C[C@@H](O)CC(=O)O[C@H]1C)C[C@H](O)[C@H]2C(=O)O [Amphotericin B, reference compound] | – | 42.1 µg/mL and 45.6 µM | 0.06 µg/mL and 100 nM | – | inhibition at 0.05 µg/mL ([3]; Dose employed: 0.05 µg/mL, intracellular amastigotes): 69.1 ± 1.3%
CC(C)=CCC/C(C)=C/COc1ccc2ccc(=O)oc2c1 [Aurapten, 7-geranyloxycoumarin] | – | – | – | – | IC50 [5]: 30 µM
COc1ccc(/C=C/C(=O)c2ccc(OCCCOc3cc(Cl)ccc3Oc3ccc(Cl)cc3Cl)cc2)cc1OC [Compound 7, (2E)-1-(4-{3-[5-Chloro-2-(2,4-dichlorophenoxy)phenoxy]propoxy}phenyl)-3-(3,4-dimethoxyphenyl) prop-2-en-1-one] | 67.4 ± 17.2 | > 200 µg/mL and > 327 µM | 9.4 µg/mL and 15.4 µM | >21.3 | –
COc1ccc(/C=C/C(=O)c2ccc(OCCCCOc3cc(Cl)ccc3Oc3ccc(Cl)cc3Cl)cc2)cc1OC [Compound 8, (2E)-1-(4-{4-[5-Chloro-2-(2,4-dichlorophenoxy)phenoxy]butoxy}phenyl)-3-(3,4-dimethoxyphenyl) prop-2-en-1-one] | 67.8 ± 19 | > 200 µg/mL and > 319 µM | 10.2 µg/mL and 16.3 µM | >19.6 | –
COc1ccc(/C=C/C(=O)c2ccc(OCCCCCOc3cc(Cl)ccc3Oc3ccc(Cl)cc3Cl)cc2)cc1OC [Compound 9, (2E)-1-[4-({5-[5-Chloro-2-(2,4-dichlorophenoxy)phenoxy]pentyl}oxy)phenyl]-3-(3,4-imethoxyphenyl) prop-2-en-1-one] | 69.5 ± 8.6 | > 200 µg/mL and > 311 µM | 13.5 µg/mL and 21.1 µM | >14.8 | –
COc1ccc(/C=C/C(=O)c2ccc(OCCCCCCCCOc3cc(Cl)ccc3Oc3ccc(Cl)cc3Cl)cc2)cc1OC [Compound 10, (2E)-1-[4-({8-[5-Chloro-2-(2,4-dichlorophenoxy)phenoxy]octyl}oxy)phenyl]-3-(3,4-dimethoxyphenyl) prop-2-en-1-one] | – | > 200 µg/mL and > 293 µM | – | – | –
Cc1cc(=O)oc2cc(OCCCOc3cc(Cl)ccc3Oc3ccc(Cl)cc3Cl)ccc12 [Compound 16, 7-{3-[5-Chloro-2-(2,4-dichlorophenoxy)phenoxy]propoxy}-4-methyl-2H-chromen-2-one] | < 50 | > 200 µg/mL and > 397 µM | – | – | Leishmanicidal activity % Inhibition ([2]; at 20 µg/mL, 72 h): 34.0 ± 0.3%
Cc1cc(=O)oc2cc(OCCCCOc3cc(Cl)ccc3Oc3ccc(Cl)cc3Cl)ccc12 [Compound 17, 7-{4-[5-Chloro-2-(2,4-dichlorophenoxy)phenoxy]butoxy}-4-methyl-2H-chromen-2-one] | 57.1 ± 11.5 | > 200 µg/mL and > 386 µM | 27.5 µg/mL and 53.1 µM | >7.3 | –
Cc1cc(=O)oc2cc(OCCCCCOc3cc(Cl)ccc3Oc3ccc(Cl)cc3Cl)ccc12 [Compound 18, 7-({5-[5-Chloro-2-(2,4-dichlorophenoxy)phenoxy]pentyl}oxy)-4-methyl-2H-chromen-2-one] | – | > 200 µg/mL and > 376 µM | – | – | –
Cc1cc(=O)oc2cc(OCCCCCCCCOc3cc(Cl)ccc3Oc3ccc(Cl)cc3Cl)ccc12 [Compound 19, 7-({8-[5-Chloro-2-(2,4-dichlorophenoxy)phenoxy]octyl}oxy)-4-methyl-2H-chromen-2-one] | – | > 200 µg/mL and > 348 µM | – | – | –
O=c1ccoc2cc(OCCCOc3cc(Cl)ccc3Oc3ccc(Cl)cc3Cl)ccc12 [Compound 25, 7-{3-[5-Chloro-2-(2,4-dichlorophenoxy)phenoxy]propoxy}-4H-chromen-4-one] | 94.4 ± 2.9 | 6.4 µg/mL and 13.1 µM | 2.7 µg/mL and 5.5 µM | 2.4 | –
O=c1ccoc2cc(OCCCCOc3cc(Cl)ccc3Oc3ccc(Cl)cc3Cl)ccc12 [Compound 26, 7-{4-[5-Chloro-2-(2,4-dichlorophenoxy)phenoxy]butoxy}-4H-chromen-4-one] | 91 ± 9.6 | 15.8 µg/mL and 31.3 µM | 7.5 µg/mL and 14.9 µM | 2.1 | –
O=c1ccoc2cc(OCCCCCOc3cc(Cl)ccc3Oc3ccc(Cl)cc3Cl)ccc12 [Compound 27, 7-({5-[5-Chloro-2-(2,4-dichlorophenoxy)phenoxy]pentyl}oxy)-4H-chromen-4-one] | 75.5 ± 1.5 | 25.8 µg/mL and 49.8 µM | 16 µg/mL and 30.9 µM | 1.6 | –
O=c1ccoc2cc(OCCCCCCCCOc3cc(Cl)ccc3Oc3ccc(Cl)cc3Cl)ccc12 [Compound 28, 7-({8-[5-Chloro-2-(2,4-dichlorophenoxy)phenoxy]octyl}oxy)-4H-chromen-4-one] | 28.4 ± 2.1 | 80 µg/mL and 143 µM | – | – | –
Oc1cc(Cl)ccc1Oc1ccc(Cl)cc1Cl [Triclosan] | – | – | – | 1.3 | inhibition at 20 µg/mL [3]: 61.8 ± 5.5%; effective concentration (EC50) [6]: < 24 µg/mL; EC50 ([2]; U-937, 72 h, read-out: Leishmanicidal activity EC50): 18.3 µg/mL and 63.2 µM
meglumine antimoniate [Sb(V), reference compound] | – | – | – | – | Cytotoxicity LC50 [1]: 495.9 ± 55.6 µg/mL; Leishmanicidal activity % Inhibition ([2]; Dose employed: 10 µg/mL, 72 h): 79.4 ± 2.1 ^h %
